Like-named read-outs stand apart in the source and are kept apart here. Where a SMILES comes first, the peptide text is derived from it. Where no end group is shown, it is not given here.
Columns and labels:
[1] = target: T1, binding of E. coli α to E. coli β (Escherichia coli, UniProt P0A988); assay: biochemical; conditions: for inhibition of the binding of α to β: plate inhibition assay as in Example 6, buffer BB14
T1 construct: made in house
Protocol: Recombinantly expressed wild type E. coli α subunit was purified and coated onto 96 well microtitre plates (Falcon flexible plates, Becton Dickinson) at 20 μg/ml in 100 mM Na2CO3, pH9.5 (50 μl/well, 4° C. overnight or 2 h, RT (RT). The plates were washed in WB3 (20 mM Tris (pH 7.5), 0.1 mM EDTA containing 0.05% v/v Tween 20). This buffer was used in all wash steps through out the assay. The plates were then blocked with “blotto” (5% skim milk powder in WB3, 100 μl/well, RT) until required. Immediately before use the plates were washed.
The purified synthetic peptides and β subunit were diluted in BB14 (20 mM Tris, pH 7.5, 10 mM MgCl2, 0.1 mM EDTA). Purified synthetic peptides with concentrations of 9.3-300 and 1000 μg/ml were allowed to complex with purified wild type β subunit (5 μg/ml) in a 96 well microtitre plate (Sarsted, Adelaide, Australia) pre-treated with “blotto” (30 min, RT). The reaction volume was 120 μl. The β subunit also was incubated in the absence of peptide or in the presence of the α subunit at 76.5 (μg/ml in BB14. All samples were incubated for 1 h (RT). Two 50 μl samples were transferred from each well to a corresponding well of the washed and “blocked” α subunit coated plates, and further incubated for 30 min (RT).
The plates were washed and treated with rabbit serum raised to the β subunit. The anti-serum was diluted 1:1000 in WB3 containing 10% “blotto”, dispensed at 50 μl/well and incubated for 12 min (RT). The plates were washed again and treated with sheep anti-rabbit Ig-HRP conjugate (Silenus, Melbourne, Australia) diluted 1:1000 in WB3 containing 10% “blotto” (50 μl/well). The plate was incubated for 12 min (RT). After a final washing step, 1 mM 2,2′-azino-bis (3-ethylbenzthiazoline-6-sulfonic acid) was added (110 μl/well). Colour development was assessed at 405 nm using a plate reader (Multiskan Ascent, Labsystems, Sweden).
For the CMS compounds in the of α:β assays, buffer BB37 replaced buffer BB14. Buffer BB37 contains 10 mM MnCl2 instead of the 10 mM MgCl2 used in BB14. The buffer conditions were changed to improve the reproducibility and sensitivity of the α:β binding assay.
Compounds from the CMS library were dissolved in DMSO at 1 mg/ml in a 96 well tray format. A corresponding slave plate was prepared by adding 115 μl of BB37. Dissolved compounds (5 μl) from the master plate was added to the corresponding well in slave plates giving a final concentration of 41.7 μg/ml.
Compounds were assayed for inhibition of the binding of E. coli α to E. coli β as described in Example 13.
Peptides were assayed for inhibition of the binding of E. coli α to E. coli β as described in Example 6 with the exception that buffer BB37 replaced buffer BB14 in the alpha:beta binding assay. As noted above, BB37 contains 10 mM MnCl2 instead of 10 mM MgCl2 used in BB14. Again, the change in buffer conditions was made to improve the reproducibility and sensitivity of the α:β binding assay.

[2] = target: binding of E. coli δ to E. coli β (Escherichia coli, UniProt P0A988); assay: biochemical; conditions: for inhibition of the binding of δ to β: plate binding assay as in Example 6
B. subtilis IH 6140 = assay: Inhibition of growth of B. subtilis by peptides (OD620 growth curve); type: cell-based, Bacillus subtilis
Protocol: B. subtilis IH 6140 was subcultured from a fresh plate into a 10 ml tube containing 5 ml of Oxoid Mueller-Hinton broth (Oxoid code CM405 Oxoid Manual 7th edition 1995 pg 2-161). This culture was shaken at 120 rpm at 37° C. for 21 h and then diluted in normal saline to 0.5 McFarland Standard (NCCLS Performance standard for Dilution Antimicrobial Susceptibility Testing M7-A4 January 1997). This suspension was further diluted 1:5 in normal saline to form the bacterial starter culture. Peptides were tested at a final concentration of 1 mg/ml in a flat bottom 96 well plate (Nunclon surface, sterile Nalge Nunc International). Wells were prepared by using 100 μl of double strength Mueller-Hinton Broth, an appropriate volume of peptide and the final volume made up to 190 μl. The wells were then inoculated with 10 μl of the starter culture.
The plate was sealed with a clear adhesive plate seal (Abgene House). It was then placed in a Labsystems Multiskan Ascent spectrophotometer. The plate was incubated at 37° C. with shaking at 120 rpm every alternate 10 seconds. The absorbence at 620 nm was measured every 30 min for 16 h.

β subunit [3] = target: T2, β subunit (Escherichia coli, UniProt P0A988); assay: Surface plasmon resonance solution affinity analysis (IC50 of free peptide); type: binding, E. coli
Protocol: (§1) Reverse phase HPLC purified peptides (10 μg) were reacted with 1 mg biotin-linker (6-(6-((biotinoyl)amino(hexanoyl) amino) hexanoic acid) sulphosuccinimidyl ester; Molecular Probes, Eugene, Oreg.) (20 mg/ml in DMSO) in 75 mM sodium borate (pH8.5) overnight (RT) with rotation. […] Biotinylated peptides that eluted later than the biotin-linker and free peptide, were collected, vacuum dried and then dissolved in water. SPR was conducted on a Biacore 2000 using streptavidin derivitised flow cell surfaces (Biacore). All β subunit and free peptide solutions were prepared in BB14 with 150 mM NaCl.
For the solution affinity analyses, higher loadings of the biotinylated peptides on the flow cell surfaces, and therefore high RU (700-1000), were established. Loading with peptide 4 generated a negative control surface. […] In all data manipulations, the RU values of this surface was subtracted from the RU values of the test surface. A calibration curve of RU values generated at different concentrations of the β subunit over 10-100 nM was developed for each biotinylated peptide attached to the flow cell surface. To determine the inhibitory effect of free peptide, 100 nM β subunit was pre-incubated for 5 min with different concentrations of free peptide (10 nM to 4.5 μM, in duplicate) to form a complex of β subunit and peptide and then passed over the flow cell surfaces. The amount of free uncomplexed βremaining was determined from the calibration curve. The log of the concentration of the uncomplexed (free) β subunit was plotted against the log concentration of inhibitory peptide.

β subunit [4] = target: T2, β subunit; assay: biochemical; type: binding, E. coli; conditions: SPR, 1:1 Langmuir model
Protocol: as §1
The data was fitted to the 1:1 Langmuir model by the BioEvaluation software (Biacore).

[5] = Table 17, α-coated plate, β 5 μg/ml, buffer BB14, read-out: IC50 α (inhibition of binding of α to β) (converted)
[6] = Table 20, assayed as in Example 6, read-out: IC50 α:β
[7] = IC50 δ (inhibition of binding of δ to β), Table 17, δ-coated plate, β 1 μg/ml
[8] = Table 24, buffer BB37 (10 mM MnCl2), read-out: IC50 α:β
[9] = B. subtilis IH 6140, peptide 1 mg/ml, OD620 over 16 h
[10] = Table 21, NCI compounds, buffer BB14, read-out: IC50 α-binding
[11] = IC50 b-peptide 1, free peptide with 100 nM β, biotinylated peptide 1 on flow cell surface
[12] = IC50 b-peptide 14, free peptide with 100 nM β, biotinylated peptide 14 on flow cell surface
[13] = biotinylated peptide on surface, read-out: KD
[14] = biotinylated peptide on flow cell surface, read-out: KD
[15] = free peptide with 100 nM β, biotinylated peptide 1 on flow cell surface, read-out: IC50 b-peptide 1
[16] = free peptide with 100 nM β, biotinylated peptide 14 on flow cell surface, read-out: IC50 b-peptide 14

T2 sequence (P0A988 whole entry): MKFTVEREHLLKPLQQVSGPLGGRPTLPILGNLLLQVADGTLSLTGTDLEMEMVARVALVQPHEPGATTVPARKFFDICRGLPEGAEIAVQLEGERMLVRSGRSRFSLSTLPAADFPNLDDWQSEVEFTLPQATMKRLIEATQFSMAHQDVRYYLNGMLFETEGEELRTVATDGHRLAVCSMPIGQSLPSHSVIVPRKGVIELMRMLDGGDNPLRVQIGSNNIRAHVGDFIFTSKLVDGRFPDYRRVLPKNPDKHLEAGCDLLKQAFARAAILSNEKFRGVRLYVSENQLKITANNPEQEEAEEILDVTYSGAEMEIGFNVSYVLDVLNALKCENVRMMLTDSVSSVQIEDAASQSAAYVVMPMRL
binding of E. coli δ to E. coli β, sequence (P0A988 whole entry): as above
T1 sequence (P0A988 whole entry): as above

Molecule: CC(C)C[C@H](NC(=O)[C@@H](N)CC(=O)O)C(=O)N[C@@H](Cc1ccccc1)C(=O)O [pep16] (H-Asp-Leu-Phe-OH; N-terminus and C-terminus assumed)
- IC50 [1, 5]: 343 µM
- IC50 [1, 6]: 135 µM
- IC50 [2, 7]: 3050 µM

Molecule: IGQLNLFGV [Peptide 110d]
- IC50 [1, 8]: 7.8 µM
- IC50 ([2]; IC50 δ:β, Table 24): 11.5 µM

Molecule: IGQLGLFGV [Peptide 110f]
- IC50 [1, 8]: 17.5 µM
- IC50 ([2]; IC50 δ:β, Table 24): 9.5 µM

Molecule: EAQLDLFDS [Peptide 112d]
- IC50 [1]: 1 µM
- IC50 [2]: 3.6 µM

Molecule: CC(C)C[C@H](NC(=O)[C@@H](N)CC(=O)O)C(=O)N[C@@H](Cc1ccccc1)C(=O)O [DLF] (H-Asp-Leu-Phe-OH; N-terminus and C-terminus assumed)
- IC50 ([1]; α:β binding, 50% inhibition, plate inhibition assay): ~343 µM
- IC50 ([2]; δ:β binding, 50% inhibition, plate binding assay): ~3050 µM
- Doubling time log phase (B. subtilis IH 6140; [9]): 187 Min
- Increase in lag phase (B. subtilis IH 6140; [9]): 120 min
- effect on growth rate during log phase of B. subtilis (B. subtilis IH 6140; peptide 1 mg/ml): decreasing the growth rate
- effect on lag phase of B. subtilis growth (B. subtilis IH 6140; peptide 1 mg/ml): increasing the lag phase
- inhibition of growth of B. subtilis (B. subtilis IH 6140; peptide 1 mg/ml, OD620 over 16 h): significantly inhibits

Molecule: IGQLDMFGV [pep1]
- IC50 [1]: 2.86 µM
- IC50 [2]: 13.2 µM

Molecule: COC(=O)CC(=O)NOCc1ccc(Cl)c(Cl)c1 [AOL-06454]
- inhibition of the binding of E. coli α to E. coli β (CMS library screen) [1]: significantly inhibited

Molecule: IGQLDLFGV [pep14]
- IC50 [1, 5]: 1.38 µM
- IC50 [2, 7]: 9.16 µM

Molecule: IGQLVLGLGV [Peptide 110b]
- IC50 [1, 8]: 9.3 µM
- IC50 ([2]; IC50 δ:β, Table 24): 6.8 µM

Molecule: CC(C)(C)OC(=O)NCC(=O)NC(CSC(c1ccccc1)c1ccccc1)C(=O)NCC(=O)O (centres unmarked) [Peptide 338500]
- IC50 [1, 10]: > 1000 µM
- IC50 ([2]; IC50 δ-binding, Table 21): 146 µM
- inhibition of the binding of δ to β [2]: significantly inhibited

Molecule: IGQADMAGV [Peptide 4]
- IC50 (β subunit [3]; [11]): > 10 µM
- IC50 (β subunit [3]; [12]): > 10 µM

Molecule: IGQASMFGV [pep2]
- IC50 [1]: 946 µM
- IC50 δ (inhibition of binding of δ to β) ([2]; Table 17, δ-coated plate, β 1 μg/ml): ni^a

Molecule: IGQAMSLFGV [Peptide 110a]
- IC50 [1, 8]: 27 µM
- IC50 ([2]; IC50 δ:β, Table 24): > 100 µM

Molecule: NC(CCC(=O)NC(CSCC(=O)c1ccc(Br)cc1)C(=O)NCC(=O)O)C(=O)O (centres unmarked) [Peptide 131123]
- IC50 [1, 10]: 210 µM
- inhibition of the binding of α to β [1]: significantly inhibited
- IC50 ([2]; IC50 δ-binding, Table 21): > 1000 µM

Molecule: CC[C@H](C)[C@H](N)C(=O)NCC(=O)N[C@@H](CCC(N)=O)C(=O)N[C@@H](C)C(=O)N[C@@H](CC(=O)O)C(=O)N[C@@H](CCSC)C(=O)N[C@@H](Cc1ccccc1)C(=O)NCC(=O)N[C@H](C(=O)O)C(C)C [DnaE]
- inhibition of the binding of α to β [1]: significant inhibition
- inhibition of the binding of δ to β [2]: inhibited

Molecule: IGQLDLFGV [Peptide 14]
- Kd (β subunit [4]; [13]): 0.8 µM
- Kd (β subunit [4]; [14]): 0.778 µM
- inhibition of the binding of α to β [1]: significant inhibition
- IC50 (β subunit [3]; [15]): 0.4 µM
- IC50 (β subunit [3]; [16]): 0.5 µM
- inhibition of the binding of δ to β [2]: inhibited

Molecule: IGQLSLFGV [Peptide 13]
- Kd (β subunit [4]; [13]): 0.778 µM
- Kd (β subunit [4]; [14]): 0.8 µM
- IC50 [1, 5]: 1.52 µM
- IC50 [1, 8]: 4.9 µM
- inhibition of the binding of α to β [1]: significant inhibition
- IC50 (β subunit [3]; [15]): 0.44 µM
- IC50 (β subunit [3]; [16]): 0.55 µM
- IC50 [2, 7]: 10.2 µM
- IC50 ([2]; IC50 δ:β, Table 24): 5.9 µM
- inhibition of the binding of δ to β [2]: inhibited

Molecule: IGQMSLLGV [Peptide 110e]
- IC50 [1, 8]: 9.7 µM
- IC50 ([2]; IC50 δ:β, Table 24): 7 µM

Molecule: IGQLSLPLGV [Peptide 110c]
- IC50 [1, 8]: 3.4 µM
- IC50 ([2]; IC50 δ:β, Table 24): 3.3 µM

Molecule: COC(=O)CC(=O)NOCc1ccc(Cl)c(Cl)c1 [AOC-06454]
- % Inhibition of binding of E. coli α to E. coli β [1]: 72.2, 75.3%

Molecule: IGQLDMFGV [Peptide 1]
- Kd (β subunit [4]; KD, biotinylated peptide on surface): 0.5 µM
- Kd (β subunit [4]; KD, biotinylated peptide on flow cell surface): 0.558 µM
- inhibition of the binding of α to β [1]: significant inhibition
- IC50 (β subunit [3]; [11]): 0.92 µM
- IC50 (β subunit [3]; [12]): 1.01 µM
- inhibition of the binding of δ to β [2]: inhibited

Molecule: CC(=O)N[C@@H](CC(=O)O)C(=O)N[C@@H](CC(C)C)C(=O)N[C@@H](Cc1ccccc1)C(N)=O [pep18] (Ac-Asp-Leu-Phe-NH2)
- IC50 [1, 6]: 135 µM

— patent US20040132121A1, “Method of identifying antibacterial compounds” (priority 2000, published 2004)
